Reference: patent US20230416330A1, “Optimized GIP Peptide Analogues” (Antag Therapeutics ApS, priority 2019, published 2023)
Starred links: 1 amine or outer side, 2 acyl side, 3 side chain; linkers in the order of their positions; H or OH if unused. Non-standard residues stand in square brackets, D forms with d. Residues, ends and D or L forms follow the SMILES beside them. Groups on a side chain read outwards from the residue. *: point of attachment. C20 diacid = O=C(O)CCCCCCCCCCCCCCCCCCC(=O)*; C18 diacid = O=C(O)CCCCCCCCCCCCCCCCC(=O)*; C16 diacid = O=C(O)CCCCCCCCCCCCCCC(=O)*; γGlu = O=C(O)[C@H](CCC(=O)[*:2])N[*:1]; Glutaryl = O=C(CCCC(=O)[*:2])[*:1]; Nle = CCCC[C@H](N)C(=O)O; AEEA = NCCOCCOCC(=O)O; Aib = CC(C)(N)C(=O)O

Columns and labels:
[1] = Solubility by visual inspection of peptide solutions; type: physicochemical
Protocol: (§1) Peptides were either dissolved in sodium phosphate buffer (50 mM, pH 7.4, filtered) or dissolved in ultrapure (MilliQ) water (adjusted to pH 7.4 with NaOH, filtered) (see Table 3). All peptide samples were prepared to a concentration of 1, 5, 7.5 or 15 mg/ml. All samples, with the exception of reference peptides GIP(3-30), AT158, and AT482 dissolved readily and produced clear and colorless solutions with gentle mixing. Peptide samples were subsequently filtered through 0.22 μm nylon filters (Q-Max® RR syringe filter, 13 mm, Frisenette, DK) to produce particle-free solutions. All samples were added to a 96-well plate reader for the ThT assay at t=0.
Clear visual appearance may be taken as an indicator of the immediate solubility of the peptide. […] Thus, A13Aib and/or N24E substitutions appear to increase solubility.

[2] = Physical stability: fibril formation in Thioflavin T (ThT) assay with agitation; type: physicochemical; settings: 25° C., agitation
Protocol: Continuous measurement of the fluorescence emission at 486 nm can be used as a measure of fibrillation behavior of peptides and proteins. The time until onset of fibrillation or fibrillation lag time is estimated here by defining the lag time (Tlag) as the point in time where the signal relative to the pre-transition baseline has reached 10% of the post-transition baseline.
50 mM sodium phosphate buffer for dissolving some samples was prepared in ultrapure water (Milli-Q® Reference A+ System, Merck) with a resistivity of 18.2 MΩ·cm. The buffer was adjusted to pH 7.4 and filtered.
The ultrapure water (MilliQ) for dissolving some samples was adjusted to pH 7.4 with NaOH and filtered prior to sample preparation.
as §1
For each sample, […] ThT (1 mM) was added to 1.2 mL peptide solution. From this sample mixture, an amount of 200 uL/well was pipetted into four or five wells (n=4 or 5). Blank samples (buffer+ThT) were also included. One 3 mm silica bead was added to each well containing samples and the plate was subjected to orbital rotation at 300 rpm to agitate and stress the samples. The temperature was kept at 25° C. throughout the measurement.

SMILES	Visual appearance ([1]; 1 mg/ml, TFA, Phosphate (7.4))	Visual appearance ([1]; 7.5 mg/ml, Na, MilliQ (8))	Visual appearance ([1]; 15 mg/ml, Na, MilliQ (8))	Avr lag time (h) ([2]; 1 mg/ml, TFA, Phosphate (7.4))	Avr lag time (h) ([2]; 7.5 mg/ml, Na, MilliQ (8))	Avr lag time (h) ([2]; 15 mg/ml, Na, MilliQ (8))	Avr lag time ([2]; 1 mg/ml, TFA, Phosphate (7.4)) [h]	Visual appearance ([1]; 5 mg/ml, TFA, MilliQ)	Avr lag time (h) ([2]; 5 mg/ml, TFA, MilliQ)
CCCC[C@H](NC(=O)C(C)(C)NC(=O)[C@@H](NC(=O)[C@H](CO)NC(=O)[C@H](Cc1ccc(O)cc1)NC(=O)[C@H](CCC(=O)O)NC(=O)[C@H](CO)NC(=O)[C@@H](NC(=O)[C@H](Cc1ccccc1)NC(=O)[C@@H](NC(=O)CNC(=O)CCCC(=O)O)[C@@H](C)O)[C@@H](C)CC)[C@@H](C)CC)C(=O)N[C@@H](CCC(=O)O)C(=O)N[C@@H](CCCCN)C(=O)N[C@H](C(=O)N[C@@H](CCCCNC(=O)COCCOCCNC(=O)COCCOCCNC(=O)CC[C@H](NC(=O)CCCCCCCCCCCCCCCCC(=O)O)C(=O)O)C(=O)N[C@@H](CCC(N)=O)C(=O)N[C@@H](CCC(N)=O)C(=O)N[C@@H](CCC(=O)O)C(=O)N[C@@H](Cc1ccccc1)C(=O)N[C@H](C(=O)N[C@@H](CCC(=O)O)C(=O)N[C@@H](Cc1c[nH]c2ccccc12)C(=O)N[C@@H](CC(C)C)C(=O)N[C@@H](CC(C)C)C(=O)N[C@@H](C)C(=O)N[C@@H](CCC(N)=O)C(=O)N[C@@H](CCCCN)C(=O)N1CCC[C@H]1C(=O)N[C@@H](CO)C(=O)N[C@@H](CO)C(=O)NCC(=O)N[C@@H](C)C(=O)N1CCC[C@H]1C(=O)N1CCC[C@H]1C(=O)N1CCC[C@H]1C(=O)N[C@@H](CO)C(=O)O)C(C)C)[C@@H](C)CC [AT706] (Glutaryl-GTFISEYSI[Aib][Nle]EKIK([AEEA-AEEA-γGlu-C18 diacid])QQEFVEWLLAQKPSSGAPPPS-OH)	Clear	Clear	Clear	fnd (Fnd = fibrils not detected within experiment time (96 hours) with agitation.)	fnd (Fnd = fibrils not detected within experiment time (96 hours) with agitation.)	fnd (Fnd = fibrils not detected within experiment time (96 hours) with agitation.)	–	–	–
CC[C@H](C)[C@H](NC(=O)[C@H](C)NC(=O)[C@H](Cc1ccc(O)cc1)NC(=O)[C@H](CC(=O)O)NC(=O)[C@H](CO)NC(=O)[C@@H](NC(=O)[C@H](Cc1ccccc1)NC(=O)[C@@H](NC(=O)CNC(=O)[C@@H](N)CCC(=O)O)[C@@H](C)O)[C@@H](C)CC)C(=O)N[C@@H](C)C(=O)N[C@@H](CCSC)C(=O)N[C@@H](CC(=O)O)C(=O)N[C@@H](CCCCN)C(=O)N[C@H](C(=O)N[C@@H](CCCCNC(=O)CCCCCCCCCCCCCCC(=O)O)C(=O)N[C@@H](CCC(N)=O)C(=O)N[C@@H](CCC(N)=O)C(=O)N[C@@H](CC(=O)O)C(=O)N[C@@H](Cc1ccccc1)C(=O)N[C@H](C(=O)N[C@@H](CCC(=O)O)C(=O)N[C@@H](Cc1c[nH]c2ccccc12)C(=O)N[C@@H](CC(C)C)C(=O)N[C@@H](CC(C)C)C(=O)N[C@@H](C)C(=O)N[C@@H](CCC(N)=O)C(=O)N[C@@H](CCCCN)C(=O)N1CCC[C@H]1C(=O)N[C@@H](CO)C(=O)N[C@@H](CO)C(=O)NCC(=O)N[C@@H](C)C(=O)N1CCC[C@H]1C(=O)N1CCC[C@H]1C(=O)N1CCC[C@H]1C(=O)N[C@@H](CO)C(=O)O)C(C)C)[C@@H](C)CC [AT746] (H-EGTFISDYAIAMDKIK(C16 diacid)QQDFVEWLLAQKPSSGAPPPS-OH; N-terminus assumed)	Clear	–	–	fnd (Fnd = fibrils not detected within experiment time (96 hours) with agitation.)	–	–	–	–	–
CC[C@H](C)[C@H](NC(=O)[C@H](CO)NC(=O)[C@H](Cc1ccc(O)cc1)NC(=O)[C@H](CC(=O)O)NC(=O)[C@H](CO)NC(=O)[C@@H](NC(=O)[C@H](Cc1ccccc1)NC(=O)[C@@H](NC(=O)CNC(=O)[C@@H](N)CCC(=O)O)[C@@H](C)O)[C@@H](C)CC)C(=O)N[C@@H](C)C(=O)N[C@@H](CCSC)C(=O)N[C@@H](CC(=O)O)C(=O)N[C@@H](CCCCN)C(=O)N[C@H](C(=O)N[C@@H](CCCCNC(=O)CCCCCCCCCCCCCCC(=O)O)C(=O)N[C@@H](CCC(N)=O)C(=O)N[C@@H](CCC(N)=O)C(=O)N[C@@H](C)C(=O)N[C@@H](Cc1ccccc1)C(=O)N[C@H](C(=O)N[C@@H](CCC(=O)O)C(=O)N[C@@H](Cc1c[nH]c2ccccc12)C(=O)N[C@@H](CC(C)C)C(=O)N[C@@H](CC(C)C)C(=O)N[C@@H](C)C(=O)N[C@@H](CCC(N)=O)C(=O)N[C@@H](CCCCN)C(=O)N1CCC[C@H]1C(=O)N[C@@H](CO)C(=O)N[C@@H](CO)C(=O)NCC(=O)N[C@@H](C)C(=O)N1CCC[C@H]1C(=O)N1CCC[C@H]1C(=O)N1CCC[C@H]1C(=O)N[C@@H](CO)C(=O)O)C(C)C)[C@@H](C)CC [AT745] (H-EGTFISDYSIAMDKIK(C16 diacid)QQAFVEWLLAQKPSSGAPPPS-OH; N-terminus assumed)	Clear	–	–	–	–	–	<24	–	–
CC[C@H](C)[C@H](NC(=O)[C@H](CCCCN)NC(=O)[C@H](CC(=O)O)NC(=O)[C@H](CCSC)NC(=O)C(C)(C)NC(=O)[C@@H](NC(=O)[C@H](CO)NC(=O)[C@H](Cc1ccc(O)cc1)NC(=O)[C@H](CC(=O)O)NC(=O)[C@H](CO)NC(=O)[C@@H](NC(=O)[C@H](Cc1ccccc1)NC(=O)[C@@H](NC(=O)CNC(=O)[C@@H](N)CCC(=O)O)[C@@H](C)O)[C@@H](C)CC)[C@@H](C)CC)C(=O)N[C@@H](CCCCNC(=O)CCCCCCCCCCCCCCC(=O)O)C(=O)N[C@@H](CCC(N)=O)C(=O)N[C@@H](CCC(N)=O)C(=O)N[C@@H](CC(=O)O)C(=O)N[C@@H](Cc1ccccc1)C(=O)N[C@H](C(=O)N[C@@H](CC(N)=O)C(=O)N[C@@H](Cc1c[nH]c2ccccc12)C(=O)N[C@@H](CC(C)C)C(=O)N[C@@H](CC(C)C)C(=O)N[C@@H](C)C(=O)N[C@@H](CCC(N)=O)C(=O)N[C@@H](CCCCN)C(=O)N1CCC[C@H]1C(=O)N[C@@H](CO)C(=O)N[C@@H](CO)C(=O)NCC(=O)N[C@@H](C)C(=O)N1CCC[C@H]1C(=O)N1CCC[C@H]1C(=O)N1CCC[C@H]1C(=O)N[C@@H](CO)C(=O)O)C(C)C [AT760] (H-EGTFISDYSI[Aib]MDKIK(C16 diacid)QQDFVNWLLAQKPSSGAPPPS-OH; N-terminus assumed)	Clear	–	–	fnd (Fnd = fibrils not detected within experiment time (96 hours) with agitation.)	–	–	–	Clear	fnd (Fnd = fibrils not detected within experiment time (96 hours) with agitation.)
CC[C@H](C)[C@H](NC(=O)[C@H](CO)NC(=O)[C@H](Cc1ccc(O)cc1)NC(=O)[C@H](CC(=O)O)NC(=O)[C@H](CO)NC(=O)[C@@H](NC(=O)[C@H](Cc1ccccc1)NC(=O)[C@@H](NC(=O)CNC(=O)[C@@H](N)CCC(=O)O)[C@@H](C)O)[C@@H](C)CC)C(=O)N[C@@H](C)C(=O)N[C@@H](CCSC)C(=O)N[C@@H](CC(=O)O)C(=O)N[C@@H](CCCCN)C(=O)N[C@H](C(=O)N[C@@H](CCCCNC(=O)CCCCCCCCCCCCCCCCCCC(=O)O)C(=O)N[C@@H](CCC(N)=O)C(=O)N[C@@H](CCC(N)=O)C(=O)N[C@@H](CC(=O)O)C(=O)N[C@@H](Cc1ccccc1)C(=O)N[C@H](C(=O)N[C@@H](CCC(=O)O)C(=O)N[C@@H](Cc1c[nH]c2ccccc12)C(=O)N[C@@H](CC(C)C)C(=O)N[C@@H](CC(C)C)C(=O)N[C@@H](C)C(=O)N[C@@H](CCC(N)=O)C(=O)N[C@@H](CCCCN)C(=O)N1CCC[C@H]1C(=O)N[C@@H](CO)C(=O)N[C@@H](CO)C(=O)NCC(=O)N[C@@H](C)C(=O)N1CCC[C@H]1C(=O)N1CCC[C@H]1C(=O)N1CCC[C@H]1C(=O)N[C@@H](CO)C(=O)O)C(C)C)[C@@H](C)CC [AT750] (H-EGTFISDYSIAMDKIK(C20 diacid)QQDFVEWLLAQKPSSGAPPPS-OH; N-terminus assumed)	Clear	–	–	fnd (Fnd = fibrils not detected within experiment time (96 hours) with agitation.)	–	–	–	–	–
